Assay results as given in patent US10604493B2, “Compositions, methods of use, and methods of treatment” (priority 2012, dated 2020).

Experiments:
CTX-M-9 = CTX-M-9 (Escherichia coli, UniProt Q9L5C8); assay: biochemical; conditions: for LipE (defined as log Ki-c log P): from Ki against CTX-M-9 and c log P
Excerpt: To investigate the effectiveness of the new analogs, we employed CTX-M-9 and a UV-absorbance based biochemical assay to obtain binding affinities. […] The parameter LipE (defined as log Ki-c log P)^24 provides a measure of binding affinity improvement achieved while retaining favorable physiochemical properties.
The compounds were synthesized as previously described or purchased from the company Chembridge, and assayed without further purification. The highest concentrations at which the compounds were tested were up to 1-3 mM (depending on their solubility) in IC50 experiment. The reaction was initiated by adding protein to the reaction buffer last.

[1] = system: O=C(Cc1cccs1)N[C@@H]1C(=O)N2C(C(=O)O)=C(/C=C/c3ccc([N+](=O)[O-])cc3[N+](=O)[O-])CS[C@H]12; assay: purified protein, by the assay type; conditions: other: substrate, 100 mM Tris-HCl pH 7.0, 0.01% Triton X-100

Compound: O=C(Nc1cccc(-c2nnn[nH]2)c1)c1cc(C(F)(F)F)cc2nc[nH]c12 [Compound 19, 6-Trifluoromethyl-3H-benzoimidazole-4-carboxylic acid [3-(1H-tetrazol-5-yl)-phenyl]-amide]
- Ki (CTX-M-9): 0.089 µM
- ligand efficiency (L.E.) (CTX-M-9; from Ki against CTX-M-9): 0.36
- LipE (defined as log Ki-c log P) (CTX-M-9): 3.86

Compound: CTX-M-9 (Escherichia coli)
- Km [1]: 24 µM

Compound: O=C(Nc1cccc(-c2nnn[nH]2)c1)c1cccc(F)c1 [Compound 1]
- LipE (defined as log Ki-c log P) (CTX-M-9): 1.37

Compound: O=C(Nc1cccc(-c2nnn[nH]2)c1)c1cc(F)cc2nc[nH]c12 [Compound 23, 6-Fluoro-3H-benzoimidazole-4-carboxylic acid [3-(1H-tetrazol-5-yl)-phenyl]-amide]
- potency (Ki) relative to comparator compound, in words (CTX-M-9; CTX-M-9): only equipotent to des-fluoro comparator 16

Compound: N#Cc1cccc(C(=O)Nc2cccc(-c3nnn[nH]3)c2)c1 [Compound 14, 3-Cyano-N-[3-(1H-tetrazol-5-yl)-phenyl]-benzamide]
- Ki (CTX-M-9): 7.2 µM

Compound: CC(=O)c1cccc(C(=O)Nc2cccc(-c3nnn[nH]3)c2)c1 [Compound 7, 3-Acetyl-N-[3-(1H-tetrazol-5-yl)-phenyl]-benzamide]
- LipE (defined as log Ki-c log P) (CTX-M-9): 2.51
